Like-named read-outs stand apart in the source and are kept apart here.
Columns and labels:
3CLpro [1] = molecular target: T1, 3CLpro (Severe acute respiratory syndrome coronavirus 2, UniProt P0DTD1); assay: biochemical
3CLpro [2] = molecular target: T1, 3CLpro; assay: biochemical; remark: listed apart in the source

Row | Structure (SMILES) | IC50 (3CLpro [1]) | IC50 (3CLpro [2])
1 | O=c1cc(-c2ccc(O)c(-c3c(O)cc(O)c4c(=O)cc(-c5ccc(O)cc5)oc34)c2)oc2cc(O)cc(O)c12 [amentoflavone] | 143 ± 23 µM | 
2 | O=c1cc(-c2ccc(O)c(O)c2)oc2cc(O)cc(O)c12 [luteolin] | 343 ± 77 µM | 
3 | CC(=O)c1c(O)c(C)c(O)c(Cc2c(O)c3c(c(C(=O)/C=C/c4ccccc4)c2O)OC(C)(C)C=C3)c1O [rottlerin] |  | 37 µM

Reference: paper doi:10.1101/2021.03.02.433618v2 (biorxiv, 2021)
